What is called IC50 is the concentration needed to halve the response being measured. A lower IC50 goes with higher potency.

The structures appear in SMILES notation.

Sequence of CREBBP (Q92793 1081-1197): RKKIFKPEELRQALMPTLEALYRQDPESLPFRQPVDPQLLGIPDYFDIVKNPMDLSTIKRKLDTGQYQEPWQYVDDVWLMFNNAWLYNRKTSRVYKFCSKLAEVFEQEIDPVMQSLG

The target in this assay is CREBBP (Homo sapiens (Human), UniProt Q92793). As to the kind of experiment: In vitro enzyme inhibition assay - CREBBP inhibition (AlphaScreen, biotinylated H4-tetraacetyl peptide). Format: binding. As to conditions: Table 28; AlphaScreen, H4-tetraacetyl peptide. In outline:
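Displacement of 20 nM biotinylated tetraacetyl-H4 peptide from 50 nM E. coli-expressed His-CREBBP, measured by AlphaScreen after bead equilibration for 2 h.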
On the technique in general: Bead proximity is the source of the signal in Alpha formats.
As to `CCCS(=O)(=O)Nc1cc(-c2ccc(=O)n(C)c2)nc(Oc2c(C)cccc2C#N)n1` [Example 109, Propane-1-sulfonic acid [2-(2-cyano-6-methyl-phenoxy)-6-(1-methyl-6-oxo-1,6-dihydro-pyridin-3-yl)-pyrimidin-4-yl]-amide], the IC50 was less than 500 nM.
In the case of `Cc1cccc(C#N)c1Oc1nc(NS(=O)(=O)C(C)C)cc(-c2ccc(=O)n(C)c2)n1` [Example 110, Propane-2-sulfonic acid [2-(2-cyano-6-methyl-phenoxy)-6-(1-methyl-6-oxo-1,6-dihydro-pyridin-3-yl)-pyrimidin-4-yl]-amide], the IC50 is less than 500 nM.
In turn, `CCCS(=O)(=O)Nc1cc(-c2cc(C)c(=O)n(C)c2)nc(Oc2ccncc2C)n1` [Example 111, Propane-1-sulfonic acid [6-(1,5-dimethyl-6-oxo-1,6-dihydro-pyridin-3-yl)-2-(3-methyl-pyridin-4-yloxy)-pyrimidin-4-yl]-amide] showed an IC50 of 500 to 5000 nM.
The molecule `CCCS(=O)(=O)Nc1cc(-c2cc(C)c(=O)n(C)c2)nc(Oc2cnccc2C)n1` [Example 112, Propane-1-sulfonic acid [6-(1,5-dimethyl-6-oxo-1,6-dihydro-pyridin-3-yl)-2-(4-methyl-pyridin-3-yloxy)-pyrimidin-4-yl]-amide] displayed an IC50 of less than 500 nM.
As for `CCCCS(=O)(=O)Nc1cc(-c2cc(Cl)c(=O)n(C)c2)nc(Oc2c(C)cccc2C#N)n1` [Example 114, Butane-1-sulfonic acid [6-(5-chloro-1-methyl-6-oxo-1,6-dihydro-pyridin-3-yl)-2-(2-cyano-6-methyl-phenoxy)-pyrimidin-4-yl]-amide], the IC50 is less than 500 nM.
`Cc1cccc(C#N)c1Oc1nc(NS(=O)(=O)CCCF)cc(-c2cc(C)c(=O)n(C)c2)n1` [Example 115, 3-Fluoro-propane-1-sulfonic acid [2-(2-cyano-6-methyl-phenoxy)-6-(1,5-dimethyl-6-oxo-1,6-dihydro-pyridin-3-yl)-pyrimidin-4-yl]-amide] came in with an IC50 of less than 500 nM.
Under `CCS(=O)(=O)Nc1cc(-c2ccc(=O)n(C)c2)nc(Oc2c(C)cccc2F)n1` [Example 116, Ethanesulfonic acid [2-(2-fluoro-6-methyl-phenoxy)-6-(1-methyl-6-oxo-1,6-dihydro-pyridin-3-yl)-pyrimidin-4-yl]-amide] stands less than 500 nM; under `Cc1cccc(F)c1Oc1nc(NS(=O)(=O)C(C)C)cc(-c2cc(Cl)c(=O)n(C)c2)n1` [Example 117, Propane-2-sulfonic acid [6-(5-chloro-1-methyl-6-oxo-1,6-dihydro-pyridin-3-yl)-2-(2-fluoro-6-methyl-phenoxy)-pyrimidin-4-yl]-amide], less than 500 nM; under `Cc1cccc(F)c1Oc1nc(NS(=O)(=O)C(C)C)cc(-c2ccc(=O)n(C)c2)n1` [Example 119, Propane-2-sulfonic acid [2-(2-fluoro-6-methyl-phenoxy)-6-(1-methyl-6-oxo-1,6-dihydro-pyridin-3-yl)-pyrimidin-4-yl]-amide], less than 500 nM.
On to `CCCS(=O)(=O)Nc1cc(-c2ccc(=O)n(C)c2)nc(Oc2c(C)cccc2F)n1` [Example 120, Propane-1-sulfonic acid [2-(2-fluoro-6-methyl-phenoxy)-6-(1-methyl-6-oxo-1,6-dihydro-pyridin-3-yl)-pyrimidin-4-yl]-amide], for which the IC50 was less than 500 nM.
Consider `CCCCS(=O)(=O)Nc1cc(-c2cc(Cl)c(=O)n(C)c2)nc(Oc2c(C)cccc2F)n1` [Example 122, Butane-1-sulfonic acid [6-(5-chloro-1-methyl-6-oxo-1,6-dihydro-pyridin-3-yl)-2-(2-fluoro-6-methyl-phenoxy)-pyrimidin-4-yl]-amide], for which the IC50 was less than 500 nM.
For `Cc1cccc(C#N)c1Oc1nc(NS(=O)(=O)CCCF)cc(-c2ccc(=O)n(C)c2)n1` [Example 123, 3-Fluoro-propane-1-sulfonic acid [2-(2-cyano-6-methyl-phenoxy)-6-(1-methyl-6-oxo-1,6-dihydro-pyridin-3-yl)-pyrimidin-4-yl]-amide], the IC50 is less than 500 nM.
Under `CCCCS(=O)(=O)Nc1cc(-c2ccc(=O)n(C)c2)nc(Oc2c(C)nn(C)c2C)n1` [Example 124, Butane-1-sulfonic acid [6-(1-methyl-6-oxo-1,6-dihydro-pyridin-3-yl)-2-(1,3,5-trimethyl-1H-pyrazol-4-yloxy)-pyrimidin-4-yl]-amide] stands less than 500 nM; under `Cc1nn(C)c(C)c1Oc1nc(NS(=O)(=O)C(C)C)cc(-c2ccc(=O)n(C)c2)n1` [Example 125, Propane-2-sulfonic acid [6-(1-methyl-6-oxo-1,6-dihydro-pyridin-3-yl)-2-(1,3,5-trimethyl-1H-pyrazol-4-yloxy)-pyrimidin-4-yl]-amide], less than 500 nM.
As to `CCCS(=O)(=O)Nc1cc(-c2ccc(=O)n(C)c2)nc(Oc2c(C)nn(C)c2C)n1` [Example 126, Propane-1-sulfonic acid [6-(1-methyl-6-oxo-1,6-dihydro-pyridin-3-yl)-2-(1,3,5-trimethyl-1H-pyrazol-4-yloxy)-pyrimidin-4-yl]-amide], the IC50 was less than 500 nM.
`CCn1nc(C)c(Oc2nc(NS(=O)(=O)C(C)C)cc(-c3cc(C)c(=O)n(C)c3)n2)c1C` [Example 127, Propane-2-sulfonic acid [6-(1,5-dimethyl-6-oxo-1,6-dihydro-pyridin-3-yl)-2-(1-ethyl-3,5-dimethyl-1H-pyrazol-4-yloxy)-pyrimidin-4-yl]-amide]: the half-inhibitory concentration (IC50) is less than 500 nM.
The molecule `CCCCS(=O)(=O)Nc1cc(-c2cc(C)c(=O)n(C)c2)nc(Oc2c(C)nn(CC)c2C)n1` [Example 128, Butane-1-sulfonic acid [6-(1,5-dimethyl-6-oxo-1,6-dihydro-pyridin-3-yl)-2-(1-ethyl-3,5-dimethyl-1H-pyrazol-4-yloxy)-pyrimidin-4-yl]-amide] gave an IC50 of less than 500 nM.
As for `CCCS(=O)(=O)Nc1cc(Oc2c(C)cccc2C#N)nc(-c2cc(C)c(=O)n(C)c2)n1` [Example 129, Propane-1-sulfonic acid [6-(2-cyano-6-methyl-phenoxy)-2-(1,5-dimethyl-6-oxo-1,6-dihydro-pyridin-3-yl)-pyrimidin-4-yl]-amide], the IC50 was less than 500 nM.
`CCCS(=O)(=O)Nc1cc(Oc2c(C#N)cccc2OC)nc(-c2cc(C)c(=O)n(C)c2)n1` [Example 130, Propane-1-sulfonic acid [6-(2-cyano-6-methoxy-phenoxy)-2-(1,5-dimethyl-6-oxo-1,6-dihydro-pyridin-3-yl)-pyrimidin-4-yl]-amide] yielded an IC50 of less than 500 nM.
In turn, `CCS(=O)(=O)Nc1cc(-c2cc(C)c(=O)n(C)c2)nc(OC2CCCC2)n1` [Example 131, Ethanesulfonic acid [2-cyclopentyloxy-6-(1,5-dimethyl-6-oxo-1,6-dihydro-pyridin-3-yl)-pyrimidin-4-yl]-amide] came in with an IC50 of less than 500 nM.
Turning to `Cc1cc(-c2cc(S(C)(=O)=O)nc(Oc3ccc(F)cc3F)n2)cn(C)c1=O` [Example 132, 5-[2-(2,4-Difluoro-phenoxy)-6-methanesulfonyl-pyrimidin-4-yl]-1,3-dimethyl-1H-pyridin-2-one], the IC50 is less than 500 nM.
In turn, `Cc1cccc(Cl)c1Oc1nc(-c2cc(C)c(=O)n(C)c2)cc(S(C)(=O)=O)n1` [Example 133, 5-[2-(2-Chloro-6-methyl-phenoxy)-6-methanesulfonyl-pyrimidin-4-yl]-1,3-dimethyl-1H-pyridin-2-one] had an IC50 of less than 500 nM.
`Cc1cc(-c2cc(S(=O)(=O)C(C)C)nc(Oc3ccc(F)cc3F)n2)cn(C)c1=O` [Example 134, 5-[2-(2,4-Difluoro-phenoxy)-6-(propane-2-sulfonyl)-pyrimidin-4-yl]-1,3-dimethyl-1H-pyridin-2-one] yielded an IC50 of less than 500 nM.
Under `Cc1cccc(Cl)c1Oc1nc(-c2cc(C)c(=O)n(C)c2)cc(S(=O)(=O)C(C)C)n1` [Example 135, 5-[2-(2-Chloro-6-methyl-phenoxy)-6-(propane-2-sulfonyl)-pyrimidin-4-yl]-1,3-dimethyl-1H-pyridin-2-one] stands less than 500 nM; under `Cc1cccc(F)c1Oc1nc(NS(=O)(=O)CCCF)cc(-c2ccc(=O)n(C)c2)n1` [Example 136, 3-Fluoro-propane-1-sulfonic acid [2-(2-fluoro-6-methyl-phenoxy)-6-(1-methyl-6-oxo-1,6-dihydro-pyridin-3-yl)-pyrimidin-4-yl]-amide], less than 500 nM.
In turn, `CCC(C)S(=O)(=O)Nc1cc(-c2ccc(=O)n(C)c2)nc(Oc2c(C)cccc2F)n1` (stereo not drawn) [Example 137, Butane-2-sulfonic acid [2-(2-fluoro-6-methyl-phenoxy)-6-(1-methyl-6-oxo-1,6-dihydro-pyridin-3-yl)-pyrimidin-4-yl]-amide] displayed an IC50 of less than 500 nM.
In the case of `CCCCS(=O)(=O)Nc1cc(-c2cc(C)c(=O)n(C)c2)nc(Oc2c(F)cccc2Cl)n1` [Example 138, Butane-1-sulfonic acid [2-(2-chloro-6-fluoro-phenoxy)-6-(1,5-dimethyl-6-oxo-1,6-dihydro-pyridin-3-yl)-pyrimidin-4-yl]-amide], the IC50 is less than 500 nM.
Under `CCCCS(=O)(=O)Nc1cc(-c2ccc(=O)n(C)c2)nc(Oc2c(F)cccc2Cl)n1` [Example 139, Butane-1-sulfonic acid [2-(2-chloro-6-fluoro-phenoxy)-6-(1-methyl-6-oxo-1,6-dihydro-pyridin-3-yl)-pyrimidin-4-yl]-amide] stands less than 500 nM; under `CCS(=O)(=O)Nc1cc(-c2cc(C)c(=O)n(C)c2)nc(OC(C)C)n1` [Example 140, Ethanesulfonic acid [6-(1,5-dimethyl-6-oxo-1,6-dihydro-pyridin-3-yl)-2-isopropoxy-pyrimidin-4-yl]-amide], less than 500 nM.
Under `CCCS(=O)(=O)Nc1cc(-c2cc(C)c(=O)n(C)c2)nc(Oc2c(F)cccc2Cl)n1` [Example 141, Propane-1-sulfonic acid [2-(2-chloro-6-fluoro-phenoxy)-6-(1,5-dimethyl-6-oxo-1,6-dihydro-pyridin-3-yl)-pyrimidin-4-yl]-amide] stands less than 500 nM.

For the origin of these results see US10202360B2 (CELGENE QUANTICEL RESEARCH, INC., priority 2016, dated 2019).
